In patent US20170165361A1, “TREATMENT OF LYSOSOMAL DISORDERS (ANTI-TNF THERAPY)” (Oxford University Innovation Limited, priority 2014, published 2017):
Where “and” joins values, the source holds several entries; their conditions need not be identical. Identical values can stand only once. Entries after “also recorded” stand apart in the source; their conditions may differ.

How the values were obtained:
Format in all cases: in vivo, mouse
Npc1−/− mice [1] = experiment: Survival of Npc1−/− mice (humane end point); settings: for effect on survival / lifespan (in words): Enbrel 200 μg/animal s.c. twice a week, Humira 20 mg/kg three times a week, Remicade 6.25 mg/kg once a week
Protocol: BALB/c mice with a mutation in the NIH allele of the Niemann Pick type Cl gene (NPCnih) were bred as heterozygotes to produce Npc1−/− (BALB/c npcnih/nih) and control genotypes (Pentchev et al., 1980). Breeding and treatment of mice were conducted as described previously (Smith et al., 2009). The humane end point of mice was defined as a loss of 10% weight within a 24 hour time frame. All procedures were conducted according to Animals (Scientific Procedures) Act 1986 under a valid Home Office License.
(§1) Enbrel® (Amgen, USA) was administered via subcutaneous injection (200 μg/animal; Koca et al., 2008) in phosphate-buffered saline (PBS) twice a week starting at […] of age (n=7). Control group animals (n=7) were administered equal volumes of PBS subcutaneously. Humira® was administered 20 mg/kg three times a week (doses converted from human doses based on differential binding coefficients against murine and human TNF) (n=4) and Remicade® 6.25 mg/kg once a week (Deveci et al., 2008) (n=5).
Upon treatment with […] Enbrel® for twice a week starting at 7 weeks of age, Npc1^−/− mice were weighed weekly until humane end point to monitor any possible effects exerted by drug treatment.

[2] = Body weight of Npc1−/− mice, weighed weekly; settings: for effect on body weight (in words): Enbrel 200 μg twice a week, Humira 20 mg/kg three times a week, Remicade 6.25 mg/kg once a week; for body weight relative to initial weight at week 7: p<0.010
Protocol: as §1
Body weights of individual mice were recorded on a weekly basis. Tremor and locomotor analysis of both treated and control groups were conducted as described by Smith et al. (2009). The procedures are briefly detailed as follows:
Upon treatment with 200 μg Enbrel® for twice a week starting at 7 weeks of age, Npc1^−/− mice were weighed weekly until humane end point to monitor any possible effects exerted by drug treatment.

Npc1−/− mice [3] = experiment: Open field rearing, manual count over 5 minutes (rearing and centre rearing); settings: for centre rearing count (no front-limb support) / rearing count (front limb support on side walls): 5 min; for centre rearing count (no front-limb support): Humira 20 mg/kg three times a week; for rearing activity vs. controls (in words): FIG. 4; for rearing count (front limb support on side walls): Remicade 6.25 mg/kg once a week
Protocol: as §1
(§2) Spontaneous activity of each mouse was recorded weekly using both an automated activity monitor (AmLogger; Linton Instrumentation, UK) and manual counting (NPC mice have a jumping phenotype in late stages of disease that can be scored as rears in the automated system so manual counts were included for this reason). The activity monitor comprises an array of infrared beams to determine the activity and motility of the subject animal. After 5-minute acclimatization in the room, each mouse was placed in the ‘open-field’ (a plasticbox measuring 45×25×12 cm) with home cage bedding to be recorded for 5 minutes. A similar setup was used for the open field rearing study, where the number of times the mouse reared on its hind legs (either against the cage wall “rearing” or without support “centre rearing”) was counted manually for 5 minutes.
Activity levels of the mice (Npc1^−/−) were recorded and classified by either “rearing” (FIG. 4A; rearing sustained by front limb support on side walls of the open-field box) or “centre rearing” (FIG. 4B; rearing with no front-limb support). […] In particular, rearing activity was maintained in Enbrel®-treated mice until 10 weeks whilst mice in the control group were no longer able to rear without front limb support (1.71 rears vs. 0.00 rears; p=0.01).

Npc1−/− mice [4] = experiment: Locomotor activity, AmLogger automated activity monitor; settings: Enbrel 200 μg twice a week
Protocol: as §1, §2

Npc1−/− mice [5] = experiment: Gait analysis, CatWalk single paw parameters; settings: Enbrel treatment, FIG. 7
Protocol: as §1
The CatWalk™ system (Noldus Information Technology, the Netherlands) was used for monitoring changes in movement patterns as indicative of any motor complications and to assess any gait improvement in response to treatment. Animals were subjected to CatWalk™ analysis biweekly, where a minimum of three ‘runs’ were collected per animal. The data collected were subsequently examined by CatWalk™ XT 10.0 software to produce a total of 177 inter-paw and intra-paw comparison parameters.
For this reason, it can be assumed that single paw parameters would reveal more sensitive indications of treatment benefits in the short time frame allowed by this acute disease model.

[6] = 9 weeks, mean±SEM, Enbrel 200 μg twice a week, control 0.429±0.30
[7] = 10 weeks, Enbrel 200 μg twice a week, control 0.00

Etanercept [Enbrel]
effect on survival / lifespan (in words) (Npc1−/− mice [1]): did not cause any significant difference in lifespan | lifespan (Npc1−/− mice [1]; Enbrel 200 μg/animal twice a week starting at 7 weeks of age, vs. 11.72±0.59 weeks, p=0.4840): 11.26±0.09 weeks | body weight relative to initial weight at 7 weeks ([2]; 200 μg Enbrel twice a week, time point not stated, vs. 87.46%, p=0.7270): 89.03% | effect on body weight (in words) [2]: did not cause any significant difference in body weights | centre rearing count (no front-limb support) (Npc1−/− mice [3]; [6]): 1.71±0.61 rears | centre rearing count (no front-limb support) (Npc1−/− mice [3]; [7]): 1.71 rears and 1.71±0.57 rears | rearing activity vs. controls (in words) (Npc1−/− mice [3]; open field): displayed a higher level of rearing activity than control mice | time spent in rearing (Npc1−/− mice [4]; 8 weeks, 5 min recording, vs. 3.29±1.775, p=0.0447): 16.86 ± 5.79 s | time spent in an active state (Npc1−/− mice [4]; 9 weeks, 5 min recording, vs. 143.43±17.625, p=0.0497): 208.14 ± 23.85 s | activity parameters vs. vehicle treated control (in words) (Npc1−/− mice [4]; FIG. 6): displayed higher activity levels; also recorded: induced higher levels of activity parameters | single paw gait parameters (in words) (Npc1−/− mice [5]): beneficial effects

Infliximab [Remicade]
effect on survival / lifespan (in words) (Npc1−/− mice [1]): Neither did Humira® or Remicade® impact mice survival | effect on body weight (in words) [2]: caused significant weight loss at weeks 8 and 9 | body weight relative to initial weight at week 7 ([2]; week 8, Remicade 6.25 mg/kg once a week, vs. 101.31%): 89.11% | body weight relative to initial weight at week 7 ([2]; week 9, Remicade 6.25 mg/kg once a week, vs. 97.16%): 80.84% | rearing count (front limb support on side walls) (Npc1−/− mice [3]; 8 weeks, mean±SEM, vs. 2.86±1.03, p=0.034): 7.80±1.71 rears | rearing count (front limb support on side walls) (Npc1−/− mice [3]; 9 weeks, mean±SEM, vs. 2.00±2.52, p=0.039): 7.20±2.27 rears | rearing activity vs. controls (in words) (Npc1−/− mice [3]; open field): sustained level of rearing activity starting from 7 weeks, higher than the two control groups (untreated and s.c. injected) and maintained up to 12 weeks

Adalimumab [Humira]
effect on survival / lifespan (in words) (Npc1−/− mice [1]): Neither did Humira® or Remicade® impact mice survival | effect on body weight (in words) [2]: did not impact mice weight | centre rearing count (no front-limb support) (Npc1−/− mice [3]; 8 weeks, mean±SEM, vs. 2.00±1.35, p=0.033): 10.00±3.58 rears | centre rearing count (no front-limb support) (Npc1−/− mice [3]; [6]): 8.25±2.84 rears | centre rearing count (no front-limb support) (Npc1−/− mice [3]; [7]): 0.00 rears | centre rearing vs. controls and other treatments (in words) (Npc1−/− mice [3]; open field, FIG. 4B): more effective amongst the other treatments starting from 8 weeks; also recorded: sustained rearing activity beyond all control groups at later time points
